These results are taken from patent US20230339952A1, “MACROCYCLIC HETEROCYCLES AND USES THEREOF” (Kumquat Biosciences Inc., priority 2022, published 2023).

Molecules are shown by their SMILES. Like-named read-outs stand apart in the source and are kept apart here. A value given as a limit tells only on which side of the number the result lay.

One test deals with SOS1 (Homo sapiens (Human), UniProt Q07889). Description: Ras-SOS interaction assay (HTRF), K-Ras G13D utilized. Format: binding. The settings on record: K-Ras G13D. On the technique in general: In TR-FRET formats the signal depends on donor and acceptor labels being close together.
Sequence of SOS1 (Q07889 564-1049): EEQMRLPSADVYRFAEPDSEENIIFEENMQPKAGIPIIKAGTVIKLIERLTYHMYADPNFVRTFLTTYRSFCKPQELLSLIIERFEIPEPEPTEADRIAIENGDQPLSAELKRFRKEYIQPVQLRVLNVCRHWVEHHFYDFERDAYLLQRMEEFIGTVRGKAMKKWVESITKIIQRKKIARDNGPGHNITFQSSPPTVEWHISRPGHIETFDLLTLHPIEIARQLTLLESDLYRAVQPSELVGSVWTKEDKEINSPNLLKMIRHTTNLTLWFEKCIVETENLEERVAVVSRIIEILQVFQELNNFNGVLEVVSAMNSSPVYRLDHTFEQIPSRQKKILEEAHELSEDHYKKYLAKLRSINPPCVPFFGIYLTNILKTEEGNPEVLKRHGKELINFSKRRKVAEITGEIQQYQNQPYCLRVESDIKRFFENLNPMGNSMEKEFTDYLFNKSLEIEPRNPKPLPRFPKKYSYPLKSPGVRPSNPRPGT
For test [1], the system named is NCI-H1975 (ATCC CRL-5908) cell line comprising an EGFR T790M L858R double mutation. As to the kind of experiment: EGFR-SOS cellular inhibition assay (CellTiter-Glo cell proliferation). In kind it is cell-based. The following applies: Homo sapiens. On the technique in general: In ATP-based viability assays light output follows the ATP content of the culture.
Protocol: A CellTiter-Glo (CTG) luminescent based assay (Promega) is used to assess growth of the cells, as a measurement of the ability of the compounds herein to inhibit EGFR signaling in the cells. […] The day after plating, cells are treated with a dilution series (e.g., a 9 point 3-fold dilution series) of the compounds herein (e.g., approximately 125 μL final volume per well).
Where [2] appears, read: 120 h, NCI-H1975 cell proliferation, approximately 5 days, read-out: H1975 IC50.

`C[C@H]1Nc2ncnc3c2cc(C2CCS(=O)(=O)CC2)c(=O)n3CCCCCCCN2CC(C2)CC(F)(F)c2cccc1c2` [Compound 161, (3R)-1^6-(1,1-dioxidotetrahydro-2H-thiopyran-4-yl)-5,5-difluoro-3-methyl-1^7,1^8-dihydro-2-aza-1(4,8)-pyrido[2,3-d]pyrimidina-7(3,1)-azetidina-4(1,3)-benzenacyclotetradecaphan-1^7-one]: the IC50 on SOS1 (read-out: SOS1 IC50) is below 100 nM; in test [1] (setting [2]), below 1000 nM.

`C[C@H]1Nc2ncnc3c2cc(C2CCS(=O)(=O)CC2)c(=O)n3CC(=O)N(C)CCCCN2CCC(CC2)C(F)(F)c2cccc1c2` [Compound 46, (4R)-6^6-(1,1-dioxidotetrahydro-2H-thiopyran-4-yl)-2,2-difluoro-4,9-dimethyl-6^7,6^8-dihydro-5,9-diaza-6(4,8)-pyrido[2,3-d]pyrimidina-1(4,1)-piperidina-3(1,3)-benzenacyclotridecaphane-6^7,8-dione]: the IC50 on SOS1 (read-out: SOS1 IC50) is below 100 nM; in test [1] (setting [2]), below 1000 nM.

Take `C[C@H]1Nc2ncnc3c2cc(C2CCS(=O)(=O)CC2)c(=O)n3CC(=O)N(C)CCCCN2CCC(CC2(C)C)C(F)(F)c2cccc1c2` (stereo partly drawn) [Compound 78, (1^4R,4R)-6^6-(1,1-dioxidotetrahydro-2H-thiopyran-4-yl)-2,2-difluoro-1^2,1^2,4,9-tetramethyl-6^7,6^8-dihydro-5,9-diaza-6(4,8)-pyrido[2,3-d]pyrimidina-1(4,1)-piperidina-3(1,3)-benzenacyclotridecaphane-6^7,8-dione]: the IC50 is below 100 nM at SOS1 (read-out: SOS1 IC50) and below 1000 nM in test [1] (setting [2]).

Take `C[C@H]1Nc2ncnc3c2cc(C2CCS(=O)(=O)CC2)c(=O)n3CCCCCCCN2CCC(CC2)C(F)(F)c2cccc1c2F` [Compound 125, (4R)-6^6-(1,1-dioxidotetrahydro-2H-thiopyran-4-yl)-3^2,2,2-trifluoro-4-methyl-6^7,6^8-dihydro-5-aza-6(4,8)-pyrido[2,3-d]pyrimidina-1(4,1)-piperidina-3(1,3)-benzenacyclotridecaphan-6^7-one]: the IC50 on SOS1 (read-out: SOS1 IC50) was below 100 nM; in test [1] (setting [2]), below 1000 nM.

As for `C[C@H]1Nc2ncnc3c2cc(C2(C#N)CC2)c(=O)n3CCCCCCCN2CCC(CC2(C)C)C(F)(F)c2cccc1c2` (stereo partly drawn) [Compound 43, 1-((4R)-2,2-difluoro-1^2,1^2,4-trimethyl-6^7-oxo-6^7,6^8-dihydro-5-aza-6(4,8)-pyrido[2,3-d]pyrimidina-1(4,1)-piperidina-3(1,3)-benzenacyclotridecaphane-6^6-yl)cyclopropane-1-carbonitrile], the half-maximal inhibitory concentration (IC50) on SOS1 (read-out: SOS1 IC50) is below 100 nM; in test [1] (setting [2]), below 1000 nM.

Take `C[C@H]1Nc2ncnc3c2cc(N2CCS(=O)(=O)CC2)c(=O)n3CCCOCCCCN2CC(C2)CC(F)(F)c2cccc1c2` [Compound 209, (3R)-1^6-(1,1-dioxidothiomorpholino)-5,5-difluoro-3-methyl-1^7,1^8-dihydro-12-oxa-2-aza-1(4,8)-pyrido[2,3-d]pyrimidina-7(3,1)-azetidina-4(1,3)-benzenacyclopentade-caphan-1^7-one]: the IC50 at SOS1 (read-out: IC50 value against SOS1) was below 50 nM; on SOS1 (read-out: SOS1 IC50), below 100 nM; in test [1] (setting [2]) it was below 1000 nM; in test [1] (NCI-H1975, EGFR T790M L858R double mutation, read-out: IC50 in inhibiting growth of NCI-H1975 cell line), below 500 nM.

With `Cc1nc2c3cc(C4(C#N)CC4)c(=O)n(c3n1)CCCCCCCOCC(F)(F)c1cccc(c1F)[C@@H](C)N2` [Compound 44, 1-((3R)-4^2,5,5-trifluoro-1^2,3-dimethyl-1^7-oxo-1^7,1^8-dihydro-7-oxa-2-aza-1(4,8)-pyrido[2,3-d]pyrimidina-4(1,3)-benzenacyclotetradecaphane-1^6-yl)cyclopropane-1-carbonitrile], the IC50 is 100 to 5000 nM at SOS1 (read-out: SOS1 IC50) and 1000 to 10000 nM in test [1] (setting [2]).

In the case of `C[C@H]1Nc2ncnc3c2cc(N2CCS(=O)(=O)CC2)c(=O)n3CCCCCCCN2CCC(CC2)C(F)(F)c2cccc1c2` [Compound 42, (4R)-6^6-(1,1-dioxidothiomorpholino)-2,2-difluoro-4-methyl-6^7,6^8-dihydro-5-aza-6(4,8)-pyrido[2,3-d]pyrimidina-1(4,1)-piperidina-3(1,3)-benzenacyclotridecaphan-6^7-one], the IC50 on SOS1 (read-out: SOS1 IC50) was below 100 nM; in test [1] (setting [2]) it was below 1000 nM.

Take `CC(C)N1CCC(c2cc3c4ncnc3n(c2=O)CCCCCCN2CCC(CC2)CC(F)(F)c2cccc(c2F)[C@@H](C)N4)CC1` [Compound 140, (3R)-4^2,5,5-trifluoro-1^6-(1-isopropylpiperidin-4-yl)-3-methyl-1^7,1^8-dihydro-2-aza-1(4,8)-pyrido[2,3-d]pyrimidina-7(4,1)-piperidina-4(1,3)-benzenacyclotridecaphan-1^7-one]: the IC50 at SOS1 (read-out: SOS1 IC50) is below 100 nM; in test [1] (setting [2]), below 1000 nM.

Regarding `C[C@H]1Nc2ncnc3c2cc(C2(C#N)CC2)c(=O)n3CC(=O)NCCCCN2CCC(CC2)C(F)(F)c2cccc1c2F` [Compound 158, 1-((4R)-3^2,2,2-trifluoro-4-methyl-6^7,8-dioxo-6^7,6^8-dihydro-5,9-diaza-6(4,8)-pyrido[2,3-d]pyrimidina-1(4,1)-piperidina-3(1,3)-benzenacyclotridecaphane-6^6-yl)cyclopropane-1-carbonitrile], the IC50 at SOS1 (read-out: SOS1 IC50) was below 100 nM; in test [1] (setting [2]), below 1000 nM.

As for `C[C@@H]1CCCNC(=O)Cn2c(=O)c(C3(C#N)CC3)cc3c(ncnc32)N[C@H](C)c2cccc(c2F)C(F)(F)C2CCN1CC2` [Compound 72, 1-((4R,13R)-3^2,2,2-trifluoro-4,13-dimethyl-6^7,8-dioxo-6^7,6^8-dihydro-5,9-diaza-6(4,8)-pyrido[2,3-d]pyrimidina-1(4,1)-piperidina-3(1,3)-benzenacyclotridecaphane-6^6-yl)cyclopropane-1-carbonitrile], the IC50 is below 100 nM on SOS1 (read-out: SOS1 IC50) and below 1000 nM in test [1] (setting [2]).

Consider `C[C@H]1Nc2ncnc3c2cc(C2(C#N)CC2)c(=O)n3CC(=O)NCCC[C@H](C)N2CCC(CC2)C(F)(F)c2cccc1c2F` [Compound 98, 1-((4R,13S)-3^2,2,2-trifluoro-4,13-dimethyl-6^7,8-dioxo-6^7,6^8-dihydro-5,9-diaza-6(4,8)-pyrido[2,3-d]pyrimidina-1(4,1)-piperidina-3(1,3)-benzenacyclotridecaphane-6^6-yl)cyclopropane-1-carbonitrile], for which the results for the IC50 (at SOS1 (read-out: SOS1 IC50); in test [1] (setting [2])) were below 100 nM and below 1000 nM, respectively.

For `C[C@H]1Nc2ncnc3c2cc(C2CCS(=O)(=O)CC2)c(=O)n3Cc2cn(nn2)CCCCN2CCC(CC2)C(F)(F)c2cccc1c2` [Compound 40, (5R,Z)-3^6-(1,1-dioxidotetrahydro-2H-thiopyran-4-yl)-7,7-difluoro-5-methyl-3^7,3^8-dihydro-1^1H-4-aza-3(8,4)-pyrido[2,3-d]pyrimidina-8(4,1)-piperidina-1(4,1)-triazola-6(1,3)-benzenacyclododecaphan-3^7-one], the results for the half-inhibitory concentration (IC50) (on SOS1 (read-out: SOS1 IC50); in test [1] (setting [2])) were below 100 nM and below 1000 nM, respectively.

As for `C[C@H]1Nc2ncnc3c2cc(C2CCS(=O)(=O)CC2)c(=O)n3CCCCCCC(=O)N2CCC(CC2)C(F)(F)c2cccc1c2F` [Compound 28, (4R)-6^6-(1,1-dioxidotetrahydro-2H-thiopyran-4-yl)-3^2,2,2-trifluoro-4-methyl-6^7,6^8-dihydro-5-aza-6(4,8)-pyrido[2,3-d]pyrimidina-1(4,1)-piperidina-3(1,3)-benzenacyclotridecaphane-6^7,13-dione], the values for the IC50 (on SOS1 (read-out: SOS1 IC50); in test [1] (setting [2])) were below 100 nM and below 1000 nM, respectively.

On to `C[C@H]1Nc2ncnc3c2cc(N2CCN(S(C)(=O)=O)CC2)c(=O)n3CCCCCCCN2CCC(CC2)C(F)(F)c2cccc1c2F` [Compound 180, (4R)-3^2,2,2-trifluoro-4-methyl-6^6-(4-(methylsulfonyl)piperazin-1-yl)-6^7,6^8-dihydro-5-aza-6(4,8)-pyrido[2,3-d]pyrimidina-1(4,1)-piperidina-3(1,3)-benzenacyclotride-caphan-6^7-one], for which the results for the IC50 (at SOS1 (read-out: SOS1 IC50); in test [1] (setting [2])) were below 100 nM and below 1000 nM, respectively.

On to `CC(C)N1CCN(c2cc3c4ncnc3n(c2=O)CC(=O)N(C)CCCCN2CCC(CC2)C(F)(F)c2cccc(c2)[C@@H](C)N4)CC1` [Compound 163, (4R)-2,2-difluoro-6^6-(4-isopropylpiperazin-1-yl)-4,9-dimethyl-6^7,6^8-dihydro-5,9-diaza-6(4,8)-pyrido[2,3-d]pyrimidina-1(4,1)-piperidina-3(1,3)-benzenacyclotridecaphane-6^7,8-dione], for which the IC50 was below 100 nM on SOS1 (read-out: SOS1 IC50) and below 1000 nM in test [1] (setting [2]).

As to `CC1CCCCCn2c(=O)c(C3(C#N)CC3)cc3c(ncnc32)N[C@H](C)c2cccc(c2F)C(F)(F)C2CCN(CC2)C1` (stereo partly drawn) [Compound 20, 1-((4R)-3^2,2,2-trifluoro-4,12-dimethyl-6^7-oxo-6^7,6^8-dihydro-5-aza-6(4,8)-pyrido[2,3-d]pyrimidina-1(4,1)-piperidina-3(1,3)-benzenacyclotridecaphane-6^6-yl)cyclopropane-1-carbonitrile], the IC50 at SOS1 (read-out: SOS1 IC50) was below 100 nM; in test [1] (setting [2]) it was below 1000 nM.

Regarding `C[C@H]1Nc2ncnc3c2cc(C2CCS(=O)(=O)CC2)c(=O)n3CC/C=C\CC(C)(C)CN2CCC(CC2)C(F)(F)c2cccc1c2` [Compound 92, (4R,Z)-6^6-(1,1-dioxidotetrahydro-2H-thiopyran-4-yl)-2,2-difluoro-4,12,12-trimethyl-6^7,6^8-dihydro-5-aza-6(4,8)-pyrido[2,3-d]pyrimidina-1(4,1)-piperidina-3(1,3)-benzenacyclotridecaphan-9-en-6^7-one], the results for the IC50 (on SOS1 (read-out: SOS1 IC50); in test [1] (setting [2])) were below 100 nM and below 1000 nM, respectively.

Regarding `CC1CCCCCCn2c(=O)c(C3(C#N)CC3)cc3c(ncnc32)N[C@H](C)c2cccc(c2)C(F)(F)C2CCN1CC2` (stereo partly drawn) [Compound 63, 1-((4R)-2,2-difluoro-4,13-dimethyl-6^7-oxo-6^7,6^8-dihydro-5-aza-6(4,8)-pyrido[2,3-d]pyrimidina-1(4,1)-piperidina-3(1,3)-benzenacyclotridecaphane-6^6-yl)cyclopropane-1-carbonitrile], the 50% inhibitory concentration (IC50) on SOS1 (read-out: SOS1 IC50) was below 100 nM; in test [1] (setting [2]) it was below 1000 nM.

The IC50 is the midpoint of a concentration-inhibition curve.
